In patent publication US9469650B2, “Melampomagnolide B derivatives” (BOARD OF TRUSTEES OF THE UNIVERSITY OF ARKANSAS, priority 2013, dated 2016):
Read-outs that look alike come from different tables or passages of the source.

Experiments:
[1] = system: HL-60(TB)
[2] = system: SF-295; assay: panel of 60 human tumor cell lines, growth inhibition (CNS Cancer); settings: SF-295
[3] = system: SNB-19; assay: as above; settings: SNB-19
[4] = system: U251; assay: as above; settings: U251
[5] = system: HCC-2998; assay: panel of 60 human tumor cell lines, growth inhibition (Colon Cancer); settings: HCC-2998
[6] = system: HT29; assay: as above; settings: HT29
[7] = system: 786-0; assay: panel of 60 human tumor cell lines, growth inhibition (Renal Cancer); settings: 786-0
[8] = system: ACHN; assay: as above
[9] = system: TK-10; assay: as above; settings: TK-10
[10] = system: HS 578T; assay: panel of 60 human tumor cell lines, growth inhibition (Breast Cancer); settings: for Percent Growth: HS 57BT

## C=C1C(=O)O[C@H]2[C@H]1CC/C(COC(=O)N1CCN(C)CC1)=C\CC[C@@]1(C)O[C@@H]21 [JVM 2-44]
[1]
  GI50: 2.53 µM
  TGI: 9.30E−6
[1]; Log10 Concentration −4.0
  Mean Optical Densities: 0.925
  Percent Growth: −37%
[1]; Log10 Concentration −5.0
  Mean Optical Densities: 1.432
  Percent Growth: −3%
[1]; Log10 Concentration −6.0
  Mean Optical Densities: 2.594
[1]; Log10 Concentration −7.0
  Mean Optical Densities: 2.607
  Percent Growth: 87%
[1]; Log10 Concentration −8.0
  Mean Optical Densities: 2.812
  Percent Growth: 102%
[1]; read-out: LC50
  CC50: > 100 µM
[2]
  GI50: 70.7 µM
  TGI: >1.00E−4
[2]; Log10 Concentration −4.0
  Mean Optical Densities: 1.767
  Percent Growth: 43%
[2]; Log10 Concentration −5.0
  Mean Optical Densities: 2.724
  Percent Growth: 87%
[2]; Log10 Concentration −6.0
  Mean Optical Densities: 2.913
  Percent Growth: 96%
[2]; Log10 Concentration −7.0
  Mean Optical Densities: 2.707
  Percent Growth: 87%
[2]; Log10 Concentration −8.0
  Mean Optical Densities: 2.920
  Percent Growth: 96%
[3]
  GI50: 19.6 µM
  TGI: 6.35E−5
[3]; Log10 Concentration −4.0
  Mean Optical Densities: 0.513
  Percent Growth: −19%
[3]; Log10 Concentration −5.0
  Mean Optical Densities: 1.860
  Percent Growth: 79%
[3]; Log10 Concentration −6.0
  Mean Optical Densities: 2.030
  Percent Growth: 90%
[3]; Log10 Concentration −7.0
  Mean Optical Densities: 2.075
  Percent Growth: 93%
[3]; Log10 Concentration −8.0
  Mean Optical Densities: 2.149
  Percent Growth: 97%
[4]
  GI50: 18.7 µM
  TGI: 4.08E−5
[4]; Log10 Concentration −4.0
  Mean Optical Densities: 0.206
  Percent Growth: −58%
[4]; Log10 Concentration −5.0
  Mean Optical Densities: 1.893
  Percent Growth: 90%
[4]; Log10 Concentration −6.0
  Mean Optical Densities: 2.002
  Percent Growth: 97%
[4]; Log10 Concentration −7.0
  Mean Optical Densities: 2.003
  Percent Growth: 97%
[4]; Log10 Concentration −8.0
  Mean Optical Densities: 2.013
  Percent Growth: 98%
[5]
  GI50: 17.5 µM
  TGI: 3.55E−5
[5]; Log10 Concentration −4.0
  Mean Optical Densities: 0.178
  Percent Growth: −73%
[5]; Log10 Concentration −5.0
  Mean Optical Densities: 1.871
  Percent Growth: 90%
[5]; Log10 Concentration −6.0
  Mean Optical Densities: 2.049
  Percent Growth: 103%
[5]; Log10 Concentration −7.0
  Mean Optical Densities: 1.999
  Percent Growth: 99%
[5]; Log10 Concentration −8.0
  Mean Optical Densities: 1.968
  Percent Growth: 97%
[6]
  GI50: 5.54 µM
  TGI: 1.95E−5
[6]; Log10 Concentration −4.0
  Mean Optical Densities: 0.873
  Percent Growth: −70%
[6]; Log10 Concentration −5.0
  Mean Optical Densities: 0.502
  Percent Growth: 28%
[6]; Log10 Concentration −6.0
  Mean Optical Densities: 1.268
  Percent Growth: 112%
[6]; Log10 Concentration −7.0
  Mean Optical Densities: 1.248
  Percent Growth: 110%
[6]; Log10 Concentration −8.0
  Mean Optical Densities: 1.216
  Percent Growth: 107%
[7]
  GI50: 6.53 µM
  TGI: 2.42E−5
[7]; Log10 Concentration −4.0
  Mean Optical Densities: 0.194
  Percent Growth: −64%
[7]; Log10 Concentration −5.0
  Mean Optical Densities: 1.194
  Percent Growth: 40%
[7]; Log10 Concentration −6.0
  Mean Optical Densities: 2.074
  Percent Growth: 94%
[7]; Log10 Concentration −7.0
  Mean Optical Densities: 2.022
  Percent Growth: 91%
[7]; Log10 Concentration −8.0
  Mean Optical Densities: 2.113
  Percent Growth: 96%
[8]
  GI50: 3.83 µM
  TGI: 1.59E−5
[8]; Log10 Concentration −4.0
  Mean Optical Densities: 0.112
  Percent Growth: −77%
[8]; Log10 Concentration −5.0
  Mean Optical Densities: 0.773
  Percent Growth: 19%
[8]; Log10 Concentration −6.0
  Mean Optical Densities: 1.883
  Percent Growth: 93%
[8]; Log10 Concentration −7.0
  Mean Optical Densities: 1.961
  Percent Growth: 9B
[8]; Log10 Concentration −8.0
  Mean Optical Densities: 2.010
  Percent Growth: 101%
[9]
  GI50: 3.91 µM
  TGI: 1.53E−5
[9]; Log10 Concentration −4.0
  Mean Optical Densities: 0.069
  Percent Growth: −94%
[9]; Log10 Concentration −5.0
  Mean Optical Densities: 1.338
  Percent Growth: 21%
[9]; Log10 Concentration −6.0
  Mean Optical Densities: 2.166
  Percent Growth: 92%
[9]; Log10 Concentration −7.0
  Mean Optical Densities: 2.198
  Percent Growth: 95%
[9]; Log10 Concentration −8.0
  Mean Optical Densities: 2.185
  Percent Growth: 94%
[10]
  GI50: 16.7 µM
  TGI: >1.00E−4
[10]; Log10 Concentration −4.0
  Percent Growth: 5%
[10]; Log10 Concentration −5.0
  Percent Growth: 63%
[10]; Log10 Concentration −6.0
  Percent Growth: 90%
